The subject of series [1] is blood platelets and arteries. Particulars: prior-art analogues, comparison by inventors; cited from earlier work.
Series [2] has as its system blood platelet aggregation. Particulars: background statement, cited from earlier work.
Series [3] concerns blood vessels / arteries. Particulars: background statement; cited from earlier work.
For series [4], the system named is human and rabbit citrated platelet-rich plasma. Put plainly: Effects on platelet aggregation (citrated platelet-rich plasma, chronolog aggregometer, 37°). The class given is cell-based. Particulars: for Biological Activity: Platelet Aggregation (in words): inhibition of aggregation induced by 2 uM ADP, human and rabbit platelet-rich plasma, 37°. The method, then:
Effects of prostacyclin analogs on platelet aggregation were evaluated using human and rabbit citrated platelet-rich plasma in a chronolog aggregometer at 37°.

The test system of series [5] is isolated perfused cat coronary arteries. In words: Effects on isolated perfused cat coronary arteries (perfusion pressure). The settings on record: for Biological Activity: Cat Coronary Artery (in words): isolated perfused right coronary artery, 37° C., Krebs-Henseleit. As for the experimental part: Effects of prostacyclin analogs on isolated perfused cat coronary arteries were measured as follows.
Cats of either sex (2.5-3.5 kg) were anesthetized with sodium pentobarbital (30 mg/kg) given intravenously. […] A 20-gauge stainless steel cannula was inserted into the right coronary artery via the coronary ostium. Distal to the cannula, approximately 1 cm of coronary artery was dissected free of surrounding tissue. The section of right coronary artery with the cannula in place was excised from the heart and immediately transferred to a constant flow perfusion apparatus.
The perfusion apparatus consists of a reservoir containing 20 ml of warm (37° C.) oxygenated (95% O2 +5% CO2) K-H solution which bathes the coronary artery and serves as recirculating perfusate. An increase in perfusion pressure indicates vasoconstriction, whereas a decrease in perfusion pressure signifies vasodilation. Following an initial 1 hr. equilibrium period, vascular responsiveness was established by adding 25 mM KCl. After washing with fresh K-H solution for 20-30 mins., the preparation achieved a relatively constant low basal tone. […] Fresh K-H dilutions of stock prostacyclin analog concentrations were added to the perfusate reservoir in 0.1-0.2 ml volumes.

Series [6] can be described thus: t1/2 in saline at 25°.
A short description of series [7]: Stability of free acid XXIV in aqueous solutions at 25° C. Format: physicochemical. The method, then: Free acid XXIV was stable in aqueous solutions at 25° C. for at least 30 days.
The conditions of series [8]: background; Bundy, Tetrahedron Letters, 1371 (1978); cited from earlier work.
Setting [9] is: number in parentheses, not explained, natural prostacyclin = 1.

“Also recorded” adds a separate entry of the source. Where two headings read alike, the source gives them in different places.

In the case of `CCCCC[C@H](O)/C=C/[C@@H]1[C@H]2CC(/C=C/CCC(=O)O)O[C@H]2C[C@H]1O` (stereo partly shown) [VII, (4E)--isoprostacyclin], the “biological activity relative to prostacyclin (in words)” value in [1] is reported as “somewhat less, active; also recorded: less biological activity”.
As to `CCCCC[C@H](O)/C=C/[C@H]1O[C@H]2C[C@H](O2)[C@@H]1C/C=C\CCCC(=O)O` [Thromboxane A2], in series [2], the “effect on blood platelet aggregation (in words)” value is recorded as “causes platelet aggregation”. The “effect on blood vessels / arteries (in words)” value in series [3] is listed as “powerful constrictor of arteries”.
With `CCCCC[C@H](O)/C=C/[C@@H]1[C@H]2C/C(=C/CCCC(=O)O)O[C@H]2C[C@H]1O` [Natural prostacyclin, 6,9α-oxido-11α,15α-dihydroxyprosta (Z)5, E(13)-dienoic acid], in series [4], the “Biological Activity: Platelet Aggregation (in words)” value is listed as “Inhibitor (Potent)”. Further, in series [5], the “Biological Activity: Cat Coronary Artery (in words)” value is recorded as “Dilator (Potent)”. Besides, the results for the “effect on blood platelet aggregation (in words)” value in series [2] (listed as Prostacyclin) and in series [2] (listed as prostacyclin) were “most potent inhibitor of blood platelet aggregation of all the prostaglandins discovered to date” and “destroys platelet aggregates after they have formed”, respectively. Besides, in series [3], the “effect on blood vessels / arteries (in words)” value is given as “powerful action as a dilator of blood vessels”. In series [6], this compound showed a half-life of 0.0333 h.
Consider `CCCCC[C@H](O)/C=C/[C@@H]1c2cc(CCCCC(=O)O)nnc2C[C@H]1O` [XXIV, 6,9-pyridaza prostacyclin, free acid], for which the “Stability in aqueous solutions (stable for at least)” value in series [7] was “at least 30 days”. Also, the “Biological Activity: Platelet Aggregation (in words)” value in [4] is listed as “Inhibitor (Potent)”. The “Biological Activity: Cat Coronary Artery (in words)” value in [5] is on record as “Dilator (Potent)”. In series [6], the half-life is > 24 h.
“6, 9-pyridaza prostacyclin, N-oxides [N-oxides XXV]”: the “t1/2 Saline (25°)” value is > 24 h. Moreover, the “Biological Activity: Platelet Aggregation (in words)” value in series [4] is reported as “Small effect”. In series [5], the “Biological Activity: Cat Coronary Artery (in words)” value is on record as “Small effect”.
Regarding `CCCCC[C@H](O)/C=C/[C@@H]1[C@H]2CCC(CCCC(=O)O)=N[C@H]2C[C@H]1O` [V], the “effect on blood platelet aggregation (in words)” value in [2] was “potency in inhibiting platelet aggregation”. The “stability (in words)” value in [8] was “high stability”.
For the compound `CCCCC[C@H](O)/C=C/[C@@H]1[C@H]2CC(CCCCC(=O)O)O[C@H]2C[C@H]1O` (stereo partly shown) [VI, dihydroprostacyclin], in [1], the “biological activity relative to prostacyclin (in words)” value is reported as “somewhat less, active; also recorded: less biological activity”.
For `CCCCC[C@H](O)/C=C/[C@@H]1[C@H]2CC(CCCCC(=O)O)=N[C@H]2C[C@H]1O` [IV], the “effect on blood platelet aggregation (in words)” value in [2] is reported as “potency in inhibiting platelet aggregation”. The “stability (in words)” value in series [8] is reported as “high stability”.
In the case of “7,8-dihydro-6,9-pyridaza prostacyclin [XXIII]”, the “Biological Activity: Platelet Aggregation (in words)” value in series [4] was “Inhibitor (Potent)”. Moreover, the “Biological Activity: Platelet Aggregation, number in parentheses” value in series [4] (setting [9]) is 0.1. The “Biological Activity: Cat Coronary Artery (in words)” value in series [5] is “Dilator (Potent)”. The “Biological Activity: Cat Coronary Artery, number in parentheses” value in [5] (setting [9]) is on record as 0.1.

The values are drawn from patent US4256883A, “Pyridoza prostacyclin analogues and N-oxides thereof” (Research Corporation, priority 1979, dated 1981).
